Consider ten molecules from publication PMC11869342, “Design and synthesis of novel HDAC6 inhibitor dimer as HDAC6 degrader for cancer treatment by palladium catalysed dimerisation” (Journal of Enzyme Inhibition and Medicinal Chemistry, 2025).

Like-named read-outs stand apart in the source and are kept apart here.

In one test the test system is PC-3 cells. The test is described as follows: Sulforhodamine B (SRB) assay, PC-3. It is filed as cell-based. The settings on record: Homo sapiens, read-out: GI50 con. ± SEM PC-3. On the procedure: (§1) The A549 and PC-3 human lung and prostate cancer cell lines were acquired from the American Type Culture Collection (Rockville, MD). […] The cultures were kept in a 37 °C incubator with 5% CO2. When the adherent cultures reached 80% confluence, they were passaged using 0.05% trypsin-EDTA. PC-3 and A549 cells were seeded into 96-well plates in RPMI medium with 5% (v/v) foetal bovine serum for 24 h. Cells in partial wells were fixed with 10% trichloroacetic acid (TCA) to represent the initial time of compound treatment. The cells were treated with or without the indicated compound for 48 h and then were fixed with 10% TCA. After the washout with ddH2O and air-dried, SRB at 0.4% (w/v) in 1% acetic acid was added for staining. Unbound SRB was washed with 1% acetic acid and SRB-bounded cells were solubilised with 10 mM Tris base. The absorbance was read at a wavelength of 515 nm for the determination of cell growth.

In a further test the test system is A549 cells. The test is described as follows: Sulforhodamine B (SRB) assay, A549. Format: cell-based. The settings on record: Homo sapiens, read-out: GI50 con. ± SEM A549. The method, then:
as §1

For test [1], the target named is T1, HDAC6 (Homo sapiens, UniProt Q9UBN7).
T1 sequence (Q9UBN7 1-1215): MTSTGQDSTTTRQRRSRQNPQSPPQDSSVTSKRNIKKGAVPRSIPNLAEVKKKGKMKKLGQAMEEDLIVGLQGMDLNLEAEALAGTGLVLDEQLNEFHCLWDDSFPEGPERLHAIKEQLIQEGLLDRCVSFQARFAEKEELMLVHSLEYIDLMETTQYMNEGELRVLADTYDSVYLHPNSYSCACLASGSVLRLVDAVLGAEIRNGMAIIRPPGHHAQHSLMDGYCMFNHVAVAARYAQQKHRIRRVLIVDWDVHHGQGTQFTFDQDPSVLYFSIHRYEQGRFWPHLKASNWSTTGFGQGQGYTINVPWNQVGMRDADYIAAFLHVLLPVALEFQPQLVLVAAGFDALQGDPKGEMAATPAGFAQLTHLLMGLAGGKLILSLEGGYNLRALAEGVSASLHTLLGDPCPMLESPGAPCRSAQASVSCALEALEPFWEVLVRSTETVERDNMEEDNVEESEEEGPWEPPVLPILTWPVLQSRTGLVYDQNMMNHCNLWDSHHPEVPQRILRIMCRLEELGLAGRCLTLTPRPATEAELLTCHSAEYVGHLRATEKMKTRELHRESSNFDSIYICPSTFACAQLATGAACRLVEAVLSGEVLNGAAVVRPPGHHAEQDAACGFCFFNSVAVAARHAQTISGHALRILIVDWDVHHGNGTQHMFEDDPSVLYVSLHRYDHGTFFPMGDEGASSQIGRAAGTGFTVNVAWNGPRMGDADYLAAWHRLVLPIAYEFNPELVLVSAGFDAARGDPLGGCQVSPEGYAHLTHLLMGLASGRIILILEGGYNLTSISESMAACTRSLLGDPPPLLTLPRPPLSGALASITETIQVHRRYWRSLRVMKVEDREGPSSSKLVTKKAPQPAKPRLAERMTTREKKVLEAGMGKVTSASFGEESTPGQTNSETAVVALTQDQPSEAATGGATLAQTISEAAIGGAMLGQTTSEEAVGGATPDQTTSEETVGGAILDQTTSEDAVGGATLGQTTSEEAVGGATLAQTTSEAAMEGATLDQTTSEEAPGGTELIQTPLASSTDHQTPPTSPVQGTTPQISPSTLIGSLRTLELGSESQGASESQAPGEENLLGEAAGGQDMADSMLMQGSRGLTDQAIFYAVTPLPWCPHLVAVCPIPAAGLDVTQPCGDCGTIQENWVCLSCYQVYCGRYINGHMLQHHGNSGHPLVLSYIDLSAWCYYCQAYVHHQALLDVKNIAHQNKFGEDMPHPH
The test can be described thus: HDAC enzyme activity assay (Reaction Biology), HDAC6. Format: biochemical. Further details: Full-length recombinant hHDAC 6 was expressed in a baculovirus expression system in SF9 cells; purchased Reaction Biology Corporation (Malvern, PA); host or cells: baculovirus / SF9 insect cells. The settings on record: for IC50: full-length recombinant hHDAC 6, RHKKAc substrate 50 μM, 2 h at 30 °C; for HDAC1/6 Selectivity: ratio of HDAC1 IC50 to HDAC6 IC50. On the procedure:
HDAC inhibition assays were performed by Reaction Biology Corporation (Malvern, PA). Full-length recombinant hHDAC 6 was expressed in a baculovirus expression system in SF9 cells. […] The reaction was stopped after 2 h at 30 °C . Trichostatin A was used as an internal control.

In another test the target is T2, HDAC1 (Homo sapiens, UniProt Q13547).
T2 construct: purchased Reaction Biology Corporation (Malvern, PA)
T2 sequence (Q13547 whole entry): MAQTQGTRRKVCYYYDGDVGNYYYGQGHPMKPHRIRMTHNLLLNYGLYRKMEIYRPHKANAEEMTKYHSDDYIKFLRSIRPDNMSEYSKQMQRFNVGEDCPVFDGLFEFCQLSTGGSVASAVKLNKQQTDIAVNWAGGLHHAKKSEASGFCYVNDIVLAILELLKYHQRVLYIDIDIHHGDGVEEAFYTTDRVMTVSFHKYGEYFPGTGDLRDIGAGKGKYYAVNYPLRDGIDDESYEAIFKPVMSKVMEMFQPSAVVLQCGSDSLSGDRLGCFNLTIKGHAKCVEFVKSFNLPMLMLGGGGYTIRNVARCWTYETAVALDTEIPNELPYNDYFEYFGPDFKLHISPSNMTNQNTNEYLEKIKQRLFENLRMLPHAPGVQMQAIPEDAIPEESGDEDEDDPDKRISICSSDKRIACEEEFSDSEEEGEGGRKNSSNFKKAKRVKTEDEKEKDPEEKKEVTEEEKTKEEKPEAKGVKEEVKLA
The test can be described thus: HDAC enzyme activity assay (Reaction Biology), HDAC1. It is filed as biochemical.

A further test deals with LC-3 II and p62. The test can be described thus: Western blotting of autophagy proteins LC-3 II and p62 in PC-3 cells. Format: cell-based, human. The settings on record: 30 μM, 24 h. The method, then: (§2) Figure 3. Western blotting analysis of (a) HDAC6 protein in PC-3 cells treated with various dimer compounds at 30 μM for 24 h, (b) Ac-α-tubulin protein in PC-3 cells treated with various dimer compounds at 30 μM for 24 h, (c) LC-3 I, LC-3 II, and p62 proteins in PC-3 cells treated with various dimer compounds at 30 μM for 24 h, (d) PARP-1 and Caspase-3 proteins in PC-3 cells treated with various dimer compounds at 30 μM for 24 h, (e) p-BUBR1^S670 and p-BUBR1^T680 proteins in PC-3 cells treated with various dimer compounds at 30 μM for 24 h. Glyceraldehyde 3-phosphate dehydrogenase (GAPDH) was used as the loading control.
(§3) After compound treatment, the cells were harvested and centrifuged. […] The supernatants quantified by Bio-Rad protein assay kit (Bio-Rad Laboratories, Hercules, CA) were mixed with sample buffer (0.3 M Tris pH6.8, 10% SDS, 50% glycerol, 10% β-mercaptoethanol, and 0.02% bromophenol blue) and heated at 95 °C for 10 min. The protein (30 µg) was separated by electrophoresis in 8% or 12% SDS-PAGE, transferred to PVDF membranes, and detected with specific antibodies (1:1000 dilution for the first and 1:7000 for the second antibodies). The immunoreactive proteins were detected with an enhanced chemiluminescence detection kit (Amersham, Buckinghamshire, UK) and the images were captured by ChemiDoc™ MP System (Bio-Rad Laboratories, Hercules, CA).

Another test relates to PARP-1 and Caspase-3. The test is described as follows: Western blotting of apoptosis biomarkers PARP-1 and Caspase-3 in PC-3 cells. Format: cell-based, human. Conditions: 30 μM, 24 h. The method, then: as §2, §3
For test [2], the target named is T1, HDAC6. The test is described as follows: Western blotting of HDAC6 protein (degradation) in PC-3 cells. Format: cell-based. Further details: endogenous in cells; host or cells: PC-3 (ATCC). The settings on record: 30 μM, 24 h. The method, then: as §2, §3

As to `O=C(NO)c1ccc(Cn2c(=O)n(CCCCCn3c(=O)c4ccccc4n(Cc4ccc(C(=O)NO)cc4)c3=O)c(=O)c3ccccc32)cc1` [Compound 8c, 4-{[3-(5-{1-[(4-Hydroxamophenyl)methyl]-2,4-dioxoquinazolin-3-yl}pentyl)-2,4-dioxoquinazolin-1-yl]methyl}benzohydroxamic acid], the GI50 with PC-3 cells (PC-3 cells, SRB, 48 h) was over 30 µM; in the test with A549 cells (A549 cells, SRB, 48 h), over 30 µM. In addition, at HDAC6 [1], the IC50 is 0.027 µM.

As to `O=C(NO)c1ccc(Cn2c(=O)n(CCc3ccccc3)c(=O)c3cc(NCCOCCOCCOCCNc4ccc5c(c4)c(=O)n(CCc4ccccc4)c(=O)n5Cc4ccc(C(=O)NO)cc4)ccc32)cc1` [Compound 4a, 4-{[6-(2-{2-[2-(2-{1-[(4-Hydroxamophenyl)methyl]-2,4-dioxo-3-phenethylquinazolin-6-ylamino}ethoxy)ethoxy]ethoxy}ethylamino)-2,4-dioxo-3-phenethylquinazolin-1-yl]methyl}benzohydroxamic acid], the GI50 is over 30 µM in the test on PC-3 cells (PC-3 cells, SRB, 48 h) and over 30 µM in the test with A549 cells (A549 cells, SRB, 48 h). Also, the IC50 on HDAC6 [1] was 0.092 µM.

Turning to `O=C(NO)c1ccc(CNc2ccccc2C(=O)NCCCCCNC(=O)c2ccccc2NCc2ccc(C(=O)NO)cc2)cc1` [Compound 11c], the results for the IC50 on HDAC1 and on HDAC6 [1] were 1.46 µM and 0.015 µM, respectively. The GI50 with PC-3 cells (PC-3 cells, SRB, 48 h) is 8.2 ± 0.1 µM; with A549 cells (A549 cells, SRB, 48 h), 6.6 ± 0.1 µM. Also, on HDAC6 [1], the “HDAC1/6 Selectivity” value turned out to be 95.

At HDAC1, `O=C(NO)c1ccc(Cn2c(=O)n(CCc3ccccc3)c(=O)c3ccccc32)cc1` [Compound 1] returned an IC50 of 11.2 µM. The GI50 in the test with PC-3 cells (PC-3, 48 h) amounted to 3.5 µM; in the test with A549 cells (A549, 48 h), 8.8 µM. Also, at HDAC6 [1], the “HDAC1/6 Selectivity” value came to 2790.

Consider `O=C(NO)c1ccc(Cn2c(=O)n(CCc3ccc(NCCOCCOCCNc4ccc(CCn5c(=O)c6ccccc6n(Cc6ccc(C(=O)NO)cc6)c5=O)cc4)cc3)c(=O)c3ccccc32)cc1` [Compound 6b, 4-{[3-(2-{4-[2–(2-{2-[4-(2-{1-[(4-Hydroxamophenyl)methyl]-2,4-dioxoquinazolin-3-yl}ethyl)phenylamino]ethoxy}ethoxy)ethylamino]phenyl}ethyl)-2,4-dioxoquinazolin-1-yl]methyl}benzohydroxamic acid], for which the IC50 came to 9.57 µM against HDAC1 and 0.033 µM at HDAC6 [1]. Moreover, the GI50 in the test with PC-3 cells (PC-3 cells, SRB, 48 h) is 5.5 ± 0.7 µM; in the test with A549 cells (A549 cells, SRB, 48 h), 9.1 ± 1.8 µM. Further, the “autophagy induction (LC-3 II level, p62 expression)” value in the test on LC-3 II and p62 is given as “signs of inducing autophagy”. For the same molecule, the “apoptosis induction (PARP-1 cleavage, Caspase-3 activation)” value in the test with PARP-1 and Caspase-3 is reported as “did not induce apoptosis”. Besides, the “HDAC6 degradation (Western blot)” value at HDAC6 [2] is given as “did not degrade HDAC6”. Further, the “HDAC1/6 Selectivity” value at HDAC6 [1] is 283.

Take `O=C(NO)c1ccc(Cn2c(=O)n(CCOCCOCCn3c(=O)c4ccccc4n(Cc4ccc(C(=O)NO)cc4)c3=O)c(=O)c3ccccc32)cc1` [Compound 8b, 4-[(3-{2-[2-(2-{1-[(4-Hydroxamophenyl)methyl]-2,4-dioxoquinazolin-3-yl}ethoxy)ethoxy]ethyl}-2,4-dioxoquinazolin-1-yl)methyl]benzohydroxamic acid]: the results for the IC50 on HDAC1 and at HDAC6 [1] were 3.19 µM and 0.002 µM, respectively. In addition, the GI50 with PC-3 cells (PC-3 cells, SRB, 48 h) is over 30 µM; in the test with A549 cells (A549 cells, SRB, 48 h), over 30 µM. For the same molecule, the “HDAC1/6 Selectivity” value at HDAC6 [1] is 1386.

With `O=C(NO)c1ccc(Cn2c(=O)n(CCc3ccccc3)c(=O)c3cc(NCCOCCOCCNc4ccc5c(c4)c(=O)n(CCc4ccccc4)c(=O)n5Cc4ccc(C(=O)NO)cc4)ccc32)cc1` [Compound 4b, 4-[(6-{2-[2-(2-{1-[(4-Hydroxamophenyl)methyl]-2,4-dioxo-3-phenethylquinazolin-6-ylamino}ethoxy)ethoxy]ethylamino}-2,4-dioxo-3-phenethylquinazolin-1-yl)methyl]benzohydroxamic acid], the IC50 was over 10 µM against HDAC1 and 0.816 µM on HDAC6 [1]. Further, the GI50 in the test with PC-3 cells (PC-3 cells, SRB, 48 h) was over 30 µM; in the test on A549 cells (A549 cells, SRB, 48 h), over 30 µM. For the same molecule, the “HDAC1/6 Selectivity” value on HDAC6 [1] is reported as over 12.

`O=C(NO)c1ccc(CNc2ccccc2C(=O)NCCOCCOCCOCCNC(=O)c2ccccc2NCc2ccc(C(=O)NO)cc2)cc1` [Compound 11a]: the IC50 at HDAC1 was 2.6 µM; on HDAC6 [1] it was 0.004 µM. Further, the GI50 in the test on PC-3 cells (PC-3 cells, SRB, 48 h) worked out at 5.9 ± 0.7 µM; with A549 cells (A549 cells, SRB, 48 h), 17.3 ± 0.2 µM. The “HDAC1/6 Selectivity” value at HDAC6 [1] is 577.

Turning to `O=C(NO)c1ccc(CNc2ccccc2C(=O)NCCOCCOCCNC(=O)c2ccccc2NCc2ccc(C(=O)NO)cc2)cc1` [Compound 11b], the IC50 at HDAC1 amounted to 1.27 µM; at HDAC6 [1], 0.003 µM. Moreover, the GI50 in the test with PC-3 cells (PC-3 cells, SRB, 48 h) was found to be 11.3 ± 0.2 µM; with A549 cells (A549 cells, SRB, 48 h), 17.9 ± 0.4 µM. In addition, the “HDAC1/6 Selectivity” value on HDAC6 [1] was 326.

Consider `O=C(NO)c1ccc(Cn2c(=O)n(CCc3ccccc3)c(=O)c3cc(NCCCCCNc4ccc5c(c4)c(=O)n(CCc4ccccc4)c(=O)n5Cc4ccc(C(=O)NO)cc4)ccc32)cc1` [Compound 4c, 4-{[6-(5-{1-[(4-Hydroxamophenyl)methyl]-2,4-dioxo-3-phenethylquinazolin-6-ylamino}pentylamino)-2,4-dioxo-3-phenethylquinazolin-1-yl]methyl}benzohydroxamic acid], for which the GI50 in the test with PC-3 cells (PC-3 cells, SRB, 48 h) is 21.4 ± 0.3 µM; in the test with A549 cells (A549 cells, SRB, 48 h) it was over 30 µM. At HDAC6 [1], the IC50 was 0.096 µM.
